According to patent US20250171461A1, “STIMULATOR OF INTERFERON GENES (STING) MODULATORS, AND COMPOSITIONS AND METHODS THEREOF” (Geode Therapeutics Inc., priority 2022, published 2025):

biological target: T1, human HAQ STING isoform (hSTING HAQ) (Homo sapiens, UniProt Q86WV6, G230A/H232R/R293Q/R71H); experiment: IFN-β mRNA level in THP1 cells (qPCR, STING agonist cellular activity); assay type: cell-based; conditions: compound at 3.6 μM, 2 hrs, IFNβ expression normalized against GAPDH by the 2^-ΔΔCT method, DMSO = 1.0
T1 construct: THP1 cells express the naturally occurring human HAQ STING isoform (hSTING HAQ); host or cells: THP1
Outline: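 THP1 cells were seeded at 9×10^5 per well, incubated overnight, then treated with compound at 3.6 μM final (0.1% DMSO control) for 2 hrs at 37 °C. IFN-β mRNA was measured by SYBR Green qPCR, normalised to GAPDH by the 2^−ΔΔCT method, in triplicate.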

T1 sequence (Q86WV6 whole entry R71H/G230A/H232R/R293Q, canonical isoform): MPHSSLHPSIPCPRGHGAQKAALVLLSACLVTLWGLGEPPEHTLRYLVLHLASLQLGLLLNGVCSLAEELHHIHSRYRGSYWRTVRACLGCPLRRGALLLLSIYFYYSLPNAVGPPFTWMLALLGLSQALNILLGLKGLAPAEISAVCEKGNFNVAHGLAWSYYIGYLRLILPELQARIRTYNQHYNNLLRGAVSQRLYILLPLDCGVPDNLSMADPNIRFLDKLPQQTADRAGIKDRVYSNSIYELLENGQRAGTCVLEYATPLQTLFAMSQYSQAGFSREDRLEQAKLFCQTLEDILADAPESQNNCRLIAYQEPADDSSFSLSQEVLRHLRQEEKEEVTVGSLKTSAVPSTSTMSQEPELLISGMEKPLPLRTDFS

| Relative mRNA INFβ/GAPDH THP 1 | SMILES |
| --- | --- |
| 3330.1 | COc1cc(CN(Cc2cn3c4c(c(N5CCN(C)CC5)c(F)cc4c2=O)OCC3C)[C@H]2CCCN(c3ccc(N)nc3)C2)ccn1 (stereo partly drawn) [Compound 29, 6-((((S)-1-(6-aminopyridin-3-yl)piperidin-3-yl)((2-methoxypyridin-4-yl)methyl)amino)methyl)-9-fluoro-3-methyl-10-(4-methylpiperazin-1-yl)-2H-[1,4]oxazino[2,3,4-ij]quinolin-7(3H)-one] |
| 433.0 | COc1cc(CN(Cc2cn3c4c(c(F)c(F)cc4c2=O)OCC3C(C)C)[C@H]2CCCN(c3ccc(N)nc3)C2)ccn1 (stereo partly drawn) [Compound 53, 6-((((S)-1-(6-aminopyridin-3-yl)piperidin-3-yl)((2-methoxypyridin-4-yl)methyl)amino)methyl)-9,10-difluoro-3-isopropyl-2H-[1,4]oxazino[2,3,4-ij]quinolin-7(3H)-one] |
| 1.3 | N#Cc1cc(CN(Cc2cn3c4c(c(F)c(F)cc4c2=O)OCC3)[C@H]2CCCN(c3cnccn3)C2)ccn1 [Compound 89, (S)-4-((((9,10-difluoro-7-oxo-2,3-dihydro-7H-[1,4]oxazino[2,3,4-ij]quinolin-6-yl)methyl)(1-(pyrazin-2-yl)piperidin-3-yl)amino)methyl)picolinonitrile] |
| 1.7 | CCOc1cc(CN(Cc2cn3c4c(c(F)c(F)cc4c2=O)OCC3)[C@H]2CCCN(c3cnccn3)C2)ccn1 [Compound 90, (S)-6-((((2-ethoxypyridin-4-yl)methyl)(1-(pyrazin-2-yl)piperidin-3-yl)amino)methyl)-9,10-difluoro-2,3-dihydro-7H-[1,4]oxazino[2,3,4-ij]quinolin-7-one] |
| 1.0 | CNC(=O)c1cc(CN(Cc2cn3c4c(c(F)c(F)cc4c2=O)OCC3)[C@H]2CCCN(c3cnccn3)C2)ccn1 [Compound 91, (S)-4-((((9,10-difluoro-7-oxo-2,3-dihydro-7H-[1,4]oxazino[2,3,4-ij]quinolin-6-yl)methyl)(1-(pyrazin-2-yl)piperidin-3-yl)amino)methyl)-N-methylpicolinamide] |
| 1.1 | NC(=O)c1cc(CN(Cc2cn3c4c(c(F)c(F)cc4c2=O)OCC3)[C@H]2CCCN(c3cnccn3)C2)ccn1 [Compound 92, (S)-4-((((9,10-difluoro-7-oxo-2,3-dihydro-7H-[1,4]oxazino[2,3,4-ij]quinolin-6-yl)methyl)(1-(pyrazin-2-yl)piperidin-3-yl)amino)methyl)picolinamide] |
| 411.3 | CCN1CCN(c2c(F)cc3c(=O)c(CN(Cc4ccnc(OC)c4)[C@H]4CCCN(c5ccc(N)nc5)C4)cn4c3c2OCC4)CC1 [Compound 93, (S)-6-(((1-(6-aminopyridin-3-yl)piperidin-3-yl)((2-methoxypyridin-4-yl)methyl)amino)methyl)-10-(4-ethylpiperazin-1-yl)-9-fluoro-2,3-dihydro-7H-[1,4]oxazino[2,3,4-ij]quinolin-7-one] |
| 248.8 | COc1cc(CN(Cc2cn3c4c(c(N5CCN(C)CC5)c(F)cc4c2=O)OCC3)[C@H]2CCCN(c3ccc(N)nc3)C2)ccn1 [Compound 94, (S)-6-(((1-(6-aminopyridin-3-yl)piperidin-3-yl)((2-methoxypyridin-4-yl)methyl)amino)methyl)-9-fluoro-10-(4-methylpiperazin-1-yl)-2,3-dihydro-7H-[1,4]oxazino[2,3,4-ij]quinolin-7-one] |
| 1.2 | Cc1cncc(CN(Cc2cn3c4c(c(N5CCN(C)CC5)c(F)cc4c2=O)OCC3)[C@@H]2CCCN(c3cnccn3)C2)c1 [Compound 95, (R)-9-fluoro-10-(4-methylpiperazin-1-yl)-6-((((5-methylpyridin-3-yl)methyl)(1-(pyrazin-2-yl)piperidin-3-yl)amino)methyl)-2,3-dihydro-7H-[1,4]oxazino[2,3,4-ij]quinolin-7-one] |
| 451.1 | COc1cc(CN(Cc2cn3c4c(c(N5CCN(C)CC5)c(F)cc4c2=O)OCC3C(C)C)[C@H]2CCCN(c3ccc(N)nc3)C2)ccn1 (stereo partly drawn) [Compound 96, 6-((((S)-1-(6-aminopyridin-3-yl)piperidin-3-yl)((2-methoxypyridin-4-yl)methyl)amino)methyl)-9-fluoro-3-isopropyl-10-(4-methylpiperazin-1-yl)-2,3-dihydro-7H-[1,4]oxazino[2,3,4-ij]quinolin-7-one] |
| 1.0 | Cc1cc(CN(Cc2cn3c4c(c(F)c(F)cc4c2=O)SCC3)[C@H]2CCCN(c3cnccn3)C2)ccn1 [Compound 97, (S)-9,10-difluoro-6-((((2-methylpyridin-4-yl)methyl)(1-(pyrazin-2-yl)piperidin-3-yl)amino)methyl)-2,3-dihydro-7H-[1,4]thiazino[2,3,4-ij]quinolin-7-one] |
| 301.6 | COc1cc(CN(Cc2cn3c4c(c(F)c(F)cc4c2=O)SCC3)[C@H]2CCCN(c3ccc(NCC4CC4)nc3)C2)ccn1 [Compound 98, (S)-6-(((1-(6-((cyclopropylmethyl)amino)pyridin-3-yl)piperidin-3-yl)((2-methoxypyridin-4-yl)methyl)amino)methyl)-9,10-difluoro-2,3-dihydro-7H-[1,4]thiazino[2,3,4-ij]quinolin-7-one] |
| 368.7 | COc1cc(CN(Cc2cn3c4c(c(F)c(F)cc4c2=O)OCC3)[C@H]2CCCN(c3ccc(NCC4CC4)nc3)C2)ccn1 [Compound 99, (S)-6-(((1-(6-((cyclopropylmethyl)amino)pyridin-3-yl)piperidin-3-yl)((2-methoxypyridin-4-yl)methyl)amino)methyl)-9,10-difluoro-2,3-dihydro-7H-[1,4]oxazino[2,3,4-ij]quinolin-7-one] |
| 581.3 | CCC1COc2c(F)c(F)cc3c(=O)c(CN(Cc4ccnc(OC)c4)[C@H]4CCCN(c5ccc(N)nc5)C4)cn1c23 (stereo partly drawn) [Compound 100, 6-((((S)-1-(6-aminopyridin-3-yl)piperidin-3-yl)((2-methoxypyridin-4-yl)methyl)amino)methyl)-3-ethyl-9,10-difluoro-2,3-dihydro-7H-[1,4]oxazino[2,3,4-ij]quinolin-7-one] |
| 332.9 | Cc1ccc(N2CCC[C@H](N(Cc3ccnc(C)c3)Cc3cn4c5c(c(OCCO)c(F)cc5c3=O)OCC4C)C2)cn1 (stereo partly drawn) [Compound 101, 9-fluoro-10-(2-hydroxyethoxy)-3-methyl-6-((((S)-1-(6-methylpyridin-3-yl)piperidin-3-yl)((2-methylpyridin-4-yl)methyl)amino)methyl)-2,3-dihydro-7H-[1,4]oxazino[2,3,4-ij]quinolin-7-one] |
| 0.9 | Cc1ccc(N2CCC[C@H](N(Cc3ccnc(C)c3)Cc3cn4c5c(c(O)c(F)cc5c3=O)OCC4C)C2)cn1 (stereo partly drawn) [Compound 102, 9-fluoro-10-hydroxy-3-methyl-6-((((S)-1-(6-methylpyridin-3-yl)piperidin-3-yl)((2-methylpyridin-4-yl)methyl)amino)methyl)-2,3-dihydro-7H-[1,4]oxazino[2,3,4-ij]quinolin-7-one] |
| 356.0 | COc1cc(CN(Cc2cn3c4c(c(OC)c(F)cc4c2=O)OCC3C)[C@H]2CCCN(c3ccc(N)nc3)C2)ccn1 (stereo partly drawn) [Compound 103, 6-((((S)-1-(6-aminopyridin-3-yl)piperidin-3-yl)((2-methoxypyridin-4-yl)methyl)amino)methyl)-9-fluoro-10-methoxy-3-methyl-2,3-dihydro-7H-[1,4]oxazino[2,3,4-ij]quinolin-7-one] |

| SMILES | Relative mRNA INFβ/GAPDH THP 1 |
| --- | --- |
| COc1cc(CN(Cc2cn3c4c(c(F)c(F)cc4c2=O)OCC3C)[C@H]2CCCN(c3ccc(N)nc3)C2)ccn1 (stereo partly drawn) [Compound 1, 6-((((S)-1-(6-aminopyridin-3-yl)piperidin-3-yl)((2-methoxypyridin-4-yl)methyl)amino)methyl)-9,10-difluoro-3-methyl-2H-[1,4]oxazino[2,3,4-ij]quinolin-7(3H)-one] | 447.9 |

biological target: T2, hERG channel (Homo sapiens, UniProt Q12809); experiment: hERG safety evaluation, manual whole cell patch clamp in hERG-expressing HEK 293 cells; assay type: cell-based; conditions: hERG stably expressed HEK 293 cells, tail current, whole cell recording
T2 construct: host or cells: HEK 293
Protocol: (1) hERG stably expressed HEK 293 cell line (#60187) was purchased from BPS Bioscience and P3-P20 were used for the study. Cells were cultured in medium containing: 90% MEM, 10% FBS, 0.1 mM NEAA, 100 U/mL Penicillin-Streptomycin, 1 mM Na pyruvate and 500 μg/mL Geneticin. Cells are split about three times a week, and maintained between ˜40% to ˜80% confluence. 24 to 48 hours prior to recordings, the cells were plated on 0.05 mg/mL PDL pre-coated glass cover slips placed in 48-well plate at 1×10^4 cells. (2) The number of cells being plated on the cover slip should reach a confluence rate at which majority of the cells are single. (1) Test compounds were initially prepared in DMSO with final concentration of 10 mM as stock solution. (2) Compound was first made into 10, 3, 1, 0.3 and 0.1 mM DMSO stock, then serial diluted into the desired test concentrations in the extracellular solution (ECs). 30 uM test solution was diluted from 10 mM DMSO stock. The final DMSO concentration was in range of 0.1-0.3%. HEKA EPC 10 USB patch clamp amplifier (from HEKA Elektronik, Germany) was used in the whole cell recording. A cover slip with plenty of single HEK293 hERG cells on the surface was removed and placed into a continuously perfused (approximately 1 ml/minute) recording chamber mounted on an inverted microscope. HERG channel currents were recorded from single cells using standard whole cell recording techniques. The cells were voltage clamped at a holding potential of −80 mV. Then hERG current was activated by depolarizing at +30 mV for 5000 ms, after which the current was taken back to −50 mV for 5000 ms to remove the inactivation and observe the deactivating tail current. The K+ tail current through HERG channels observed during this step was allowed to stabilize under continuous bath perfusion. Cells were then superfused with drug until steady state block was achieved. Steady state was considered reached when three consecutive super-imposable current records were collected. At this point, cells were once again superfused with extracellular solution until the current amplitude returned to values close to those measured before application of drug. (1) Percent current inhibition was calculated using the following equation. (Note: PatchMaster was used to extract the peak current from the original data.) (2) The dose response curve of test compounds was plotted with % inhibition against the concentration of test compounds using Graphpad Prism 9.0, and fit the data to a log(inhibitor) vs. response—Variable slope curve.

T2 sequence (Q12809 whole entry): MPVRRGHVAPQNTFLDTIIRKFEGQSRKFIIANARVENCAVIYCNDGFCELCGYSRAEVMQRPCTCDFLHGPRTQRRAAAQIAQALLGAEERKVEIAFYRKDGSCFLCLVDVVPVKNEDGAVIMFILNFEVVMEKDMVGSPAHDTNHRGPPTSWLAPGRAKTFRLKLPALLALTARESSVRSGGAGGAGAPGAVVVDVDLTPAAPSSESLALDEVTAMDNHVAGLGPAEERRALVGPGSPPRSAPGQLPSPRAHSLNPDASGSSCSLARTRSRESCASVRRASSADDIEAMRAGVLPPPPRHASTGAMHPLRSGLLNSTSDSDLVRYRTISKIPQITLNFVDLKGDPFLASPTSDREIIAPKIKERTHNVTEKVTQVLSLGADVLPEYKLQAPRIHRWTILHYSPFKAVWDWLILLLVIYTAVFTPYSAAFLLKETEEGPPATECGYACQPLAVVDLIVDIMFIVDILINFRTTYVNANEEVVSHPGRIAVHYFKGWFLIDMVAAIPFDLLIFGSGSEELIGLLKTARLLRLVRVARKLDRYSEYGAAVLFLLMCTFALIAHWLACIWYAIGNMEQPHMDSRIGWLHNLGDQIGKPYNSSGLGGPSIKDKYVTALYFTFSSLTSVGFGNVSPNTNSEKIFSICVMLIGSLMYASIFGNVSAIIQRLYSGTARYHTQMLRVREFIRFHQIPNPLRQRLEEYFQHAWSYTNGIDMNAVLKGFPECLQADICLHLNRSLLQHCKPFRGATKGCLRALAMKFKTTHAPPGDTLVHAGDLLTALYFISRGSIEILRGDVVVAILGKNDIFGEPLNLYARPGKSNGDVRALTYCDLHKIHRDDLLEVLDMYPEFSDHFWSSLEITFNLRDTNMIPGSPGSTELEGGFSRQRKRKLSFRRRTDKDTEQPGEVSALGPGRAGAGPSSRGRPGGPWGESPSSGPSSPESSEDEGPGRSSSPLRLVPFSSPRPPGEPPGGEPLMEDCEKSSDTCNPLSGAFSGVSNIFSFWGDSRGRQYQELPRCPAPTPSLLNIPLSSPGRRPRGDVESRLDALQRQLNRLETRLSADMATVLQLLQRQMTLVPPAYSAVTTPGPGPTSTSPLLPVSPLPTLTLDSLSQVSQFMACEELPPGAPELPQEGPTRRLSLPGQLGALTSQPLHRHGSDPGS

| SMILES | IC50 [µM] |
| --- | --- |
| COc1cc(CN(Cc2cn3c4c(c(F)c(F)cc4c2=O)OCC3C)[C@H]2CCCN(c3ccc(N)nc3)C2)ccn1 (stereo partly drawn) [Compound 1, 6-((((S)-1-(6-aminopyridin-3-yl)piperidin-3-yl)((2-methoxypyridin-4-yl)methyl)amino)methyl)-9,10-difluoro-3-methyl-2H-[1,4]oxazino[2,3,4-ij]quinolin-7(3H)-one] | 1.58 |
| COc1cc(CN(Cc2cn3c4c(c(N5CCN(C)CC5)c(F)cc4c2=O)OCC3C)[C@H]2CCCN(c3ccc(N)nc3)C2)ccn1 (stereo partly drawn) [Compound 29, 6-((((S)-1-(6-aminopyridin-3-yl)piperidin-3-yl)((2-methoxypyridin-4-yl)methyl)amino)methyl)-9-fluoro-3-methyl-10-(4-methylpiperazin-1-yl)-2H-[1,4]oxazino[2,3,4-ij]quinolin-7(3H)-one] | 34.1 |
| COc1cc(CN(Cc2cn3c4c(c(F)c(F)cc4c2=O)OCC3C(C)C)[C@H]2CCCN(c3ccc(N)nc3)C2)ccn1 (stereo partly drawn) [Compound 53, 6-((((S)-1-(6-aminopyridin-3-yl)piperidin-3-yl)((2-methoxypyridin-4-yl)methyl)amino)methyl)-9,10-difluoro-3-isopropyl-2H-[1,4]oxazino[2,3,4-ij]quinolin-7(3H)-one] | 1.27 |
